Data taken from ChEMBL document CHEMBL1135715, “DNA cleavage potency, cytotoxicity, and mechanism of action of a novel class of enediyne prodrugs” (J Med Chem, 2002).

Tested on: P388
Experiment: Cytotoxicity, 50% inhibitory concentration against P388 Mouse T cell leukemia cell line by MTT assay
Type: functional, cell-based

Question: `OC1C#CCCCCC#C/C1=C\c1cccc2ccccc12` (stereo not given) was tested. Which IC50 did it give?
Answer: Its IC50 is 41 µM.

Question: How did the IC50 turn out when `COc1ccc(C(O)/C2=C/C#CCCCCC#C2)cc1` (stereo not given) was run?
Answer: Its IC50 is 13 µM.

Question: Which IC50 does the source give for `COCC(=O)OC1C#CCCCCC#C/C1=C\c1ccc2ccccc2c1` (stereo not given) here?
Answer: The IC50 was 28 µM.

Question: `COc1ccc(/C=C2\C#CCCCCC#CC2OC(C)=O)cc1` (stereo not given) was tested. Which IC50 did it give?
Answer: The IC50 was 15 µM.

Question: `CC(=O)OC1C#CCCCCC#C/C1=C\c1ccc2ccccc2c1` (stereo not given) was tested. Which IC50 did it give?
Answer: The IC50 was 2.8 µM.

Question: With `COCC(=O)OC(/C1=C/C#CCCCCC#C1)c1ccc2ccccc2c1` (stereo not given) as the molecule, how does the IC50 read?
Answer: Its IC50 is 9.5 µM.

Question: With `OC1C#CCCCCC#C/C1=C\c1ccc2ccccc2c1` (stereo not given) as the molecule, how does the IC50 read?
Answer: The IC50 was 3.6 µM.

Question: For `COCC(=O)OC(/C1=C/C#CCCCCC#C1)c1cccc2ccccc12` (stereo not given), which IC50 is on record?
Answer: The IC50 was 3.8 µM.

Question: Which IC50 does the source give for `COCC(=O)OC(/C1=C/C#CCCCCC#C1)c1ccccc1` (stereo not given) here?
Answer: Its IC50 is 7.7 µM.

Question: `COCC(=O)OC1C#CCCCCC#C/C1=C\c1cccc2ccccc12` (stereo not given) was tested. Which IC50 did it give?
Answer: Its IC50 is 12 µM.

Question: With `CC(=O)OC1C#CCCCCC#C/C1=C\c1cccc2ccccc12` (stereo not given) as the molecule, how does the IC50 read?
Answer: Its IC50 is 2.4 µM.

Question: For `CC(=O)OC1C#CCCCCC#C/C1=C\c1ccccc1` (stereo not given), which IC50 is on record?
Answer: Its IC50 is 48 µM.

Question: Which IC50 does the source give for `COCC(=O)OC1C#CCCCCC#C/C1=C\c1ccccc1` (stereo not given) here?
Answer: The IC50 was 23 µM.

Question: How did the IC50 turn out when `OC1C#CCCCCC#C/C1=C\c1ccccc1` (stereo not given) was run?
Answer: Its IC50 is 25 µM.

Question: How did the IC50 turn out when `COc1ccc(/C=C2\C#CCCCCC#CC2O)cc1` (stereo not given) was run?
Answer: Its IC50 is 5.8 µM.
